Experiments:
[1] = system: PC3 tumor-bearing nude mouse model; assay: Radiotherapy efficacy studies (short and long term survival); type: in vivo; details: 177Lu labeled; for survival, Short Term Efficacy Study: 30 mCi/kg i.v. or s.c., versus untreated control and DO3A-monoamide-Aoc-QWAVGHLM-NH2 control; for survival, Long Term Efficacy Study: 30 mCi/kg, up to 120 days, n=46, p<0.0001 versus controls
Protocol: Radiotherapy studies were performed using the PC3 tumor-bearing nude mouse model. […] (n=12 for each treatment group for up to days, and n=36 for the pooled untreated control group for up to 31 days). […] The subjects were housed in a barrier environment for the duration of the study. Body weight and tumor size (by caliper measurement) were collected on each subject 3 times per week for the duration of the study. Criteria for early termination included: death; loss of total body weight (TBW) equal to or greater than 20%; tumor size equal to or greater than 2 cm^3.

NMB-R = target: T1, NMB-R (Rattus norvegicus, UniProt P24053); assay: Competition with 125I-NMB for NMB-R in C6 cells; type: binding, rodent; details: cut off 10× the IC50 of [Tyr4]-BBN; for GRP-R and NMB-R (binds both with similar affinity): class from IC50 with 125I-NMB on C6 cells; for receptor subtype preference (GRP-R versus NMB-R): from IC50 with 125I-NMB on C6 cells and 125I-BBN on PC3 cells
T1 construct: C6, an NMB-R expressing rodent glioblastoma cell line; host or cells: C6 glioma cells (intact, plated)
T1 sequence (P24053 1-390): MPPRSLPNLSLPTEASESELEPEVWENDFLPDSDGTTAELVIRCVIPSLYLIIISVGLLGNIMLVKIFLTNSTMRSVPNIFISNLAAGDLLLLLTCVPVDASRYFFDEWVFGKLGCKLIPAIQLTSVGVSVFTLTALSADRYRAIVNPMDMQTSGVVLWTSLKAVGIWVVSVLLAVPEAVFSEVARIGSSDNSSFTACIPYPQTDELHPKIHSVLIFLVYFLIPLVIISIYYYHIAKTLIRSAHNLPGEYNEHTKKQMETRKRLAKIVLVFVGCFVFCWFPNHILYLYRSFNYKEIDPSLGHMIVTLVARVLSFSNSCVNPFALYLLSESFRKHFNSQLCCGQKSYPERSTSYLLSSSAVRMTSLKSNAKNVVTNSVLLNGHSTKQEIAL
Protocol: Two cell lines, C6, an NMB-R expressing rodent glioblastoma cell line and PC3, a GRP-R expressing human prostate cancer cell line, were used in this assay. The affinity of various unlabeled compounds for each receptor subtype (NMB-R and GRP-R) was determined indirectly by measuring its ability to compete with the binding of ^125I-NMB or ^125I-BBN to its corresponding receptors in C6 and PC3 cells.
Cells for the assays were plated at a concentration of 9.6×10^4/well in 48 well poly-lysine coated plates (Beckton Dickinson Biocoat). PC3 were obtained from ATCC(CRL-1435) and cultured in RPMI 1640 (ATCC) supplemented with 2 mM L-glutamine, 1.5 g/L Sodium bicarbonate, 10 mM HEPES and 10% FBS. […] PC3 cells for the assays were plated at a concentration of 2.0×10^4 cells/well in 96-well white/clear bottom plates (Falcon Optilux-I). Plates were used for the assays on day 2 of the post-plating.
RPMI 1640 (ATCC) containing 25 mM HEPES, 0.2% BSA fraction V, 1.0 mM AEBSF (CAS #3087-99-7) and 0.1% Bacitracin (CAS #1405-87-4), pH 7.4. Custom made ^125I-[Tyr°]NMB, >2.0 Ci/mole (Amersham Life Science) [^125I-NMB] and commercially available ^125I-[Tyr^4]BBN, >2.0 Ci/mole (Perkin Elmer Life Science) [^125I-BBN] were used as radioligands.
Using a 48-well plate assay system (for C6 study) competition experiments were performed using ^125I-NMB. […] Selection of compounds for the assay was based on linker subtype.
The binding parameters obtained from the studies were analyzed using a one-site competition non-linear regression analysis with GraphPad Prism. The relative affinity of various compounds for NMB-R in C6 cells were compared with those obtained using commercially available [Tyr^4]-BBN and [Tyro]-NMB. To distinguish the GRP-R preferring compounds from NMB-R plus GRP-R preferring compounds, IC50 values obtained for each compound were compared with those obtained from [Tyr^4-BBN with ^125I-NMB on C6 cells.

PC3 cells = assay: Internalization and efflux assay in PC3 cells (125I-BBN, 177Lu complexes); type: cell-based, human; details: 37° C., 125I-BBN and Lu-177 complexes; for Efflux (2 h): after 40 min loading
Protocol: These studies were conducted in a 96-well plate. […] Incubations were stopped by the addition of 200 μl of ice-cold binding buffer. Plates were washed twice with binding buffer. To remove surface-bound radioligand, the cells were incubated with 0.2M acetic acid (in saline), pH 2.8 for 2 min. Plates were centrifuged and the acid wash media were collected to determine the amount of radioactivity which was not internalized. The cells were collected to determine the amount of internalized ^125I-BBN, and all samples were analyzed in the gamma counter. Data for the internalization assay was normalized by comparing counts obtained at the various time points with the counts obtained at the final time point (T=40 min).
For the efflux studies, after loading the PC3 cells with ^125I-BBN or radiolabeled compounds of the invention for 40 min at 37° C., the unbound material was filtered, and the % of internalization was determined as above. The cells were then resuspended in binding buffer at 37° C. for up to 3 h.

[2] = system: GRP receptor binding in T47D human breast cancer cells; assay: Effect of drug treatment on GRP receptor binding (177Lu-AMBA) and proliferation in T-47D cells; type: cell-based; details: for change in 177Lu-AMBA binding (GRP receptor specific signal per cell), T47D: Table 25, range 0.001-0.1 μM, vs untreated controls; for decrease in 177Lu-AMBA binding (GRP receptor specific signal per cell) / increase in 177Lu-AMBA binding (GRP receptor specific signal per cell): relative to untreated control; for decrease in 177Lu-AMBA binding (GRP receptor specific signal per cell): drug 0.1-1.0 μM (4-OH Tamoxifen 0.001-0.1 μM); for increase in 177Lu-AMBA binding (GRP receptor specific signal per cell): drug 0.1-1.0 μM (gefitinib 0.1-10 μM); for GRP receptor specific signal per cell (177Lu-AMBA binding) versus untreated controls, in words: drug 0.1-1.0 μM (β2-estradiol 1 nM)
Text: T-47D breast cancer cells (human metastatic mammary gland ductal adenocarcinoma isolated from pleural effusion, ER+, PR+) were obtained from the American Type Culture Collection.

[3] = system: GRP receptor binding in PC-3 prostate cancer cells; assay: Effect of drug treatment on GRP receptor binding (177Lu-AMBA) and proliferation in PC-3 cells; details: for change in 177Lu-AMBA binding (GRP receptor specific signal per cell), PC-3: Table 25, range 0.001-0.1 μM, vs untreated controls; for decrease in 177Lu-AMBA binding (GRP receptor specific signal per cell): drug 0.1-1.0 μM (gefitinib 0.1-10 μM); for GRP receptor specific signal per cell (177Lu-AMBA binding) versus untreated controls, in words: drug 0.1-1.0 μM (4-OH Tamoxifen 0.001-0.1 μM)
Protocol: (§1) RPMI 1640 supplemented with 20 mM HEPES, 0.1% BSA (w/v), 0.5 mM PMSF (AEBSF), bacitracin (50 mg/500 ml), pH 7.4.
(§2) Treatment: BT-474 cells were plated on Day 0 (see above); approximately 24-48 h after plating, treatment Days 1 and 2 (DT1, DT2), the medium was removed and replaced with fresh growth medium (control), or growth medium with the addition of lapatinib (0.1-1.0 μM). […] Incubations were stopped by the addition of 200 μL of ice-cold binding buffer. Plates were washed three more times with binding buffer, 140 μL of scintillation fluid was added to each well, the plates were sealed and analyzed on a Microp plate reader (Microbeta Trilux, Perkin-Elmer).
(§3) Treatment: BT-474 cells were plated on Day 0 and treated on Days 1 and 2 (DT1, DT2).

[4] = system: GRP receptor binding in BT-474 human breast cancer cells; assay: Effect of drug treatment on GRP receptor binding (177Lu-AMBA) and proliferation in BT-474 cells; details: for change in 177Lu-AMBA binding (GRP receptor specific signal per cell), BT-474: Table 25, range 0.001-0.1 μM, vs untreated controls; for GRP receptor specific signal per cell (177Lu-AMBA binding) versus untreated controls, in words: drug 0.1-1.0 μM (gefitinib 0.1-10 μM); for decrease in 177Lu-AMBA binding (GRP receptor specific signal per cell): relative to untreated control, drug 0.1-1.0 μM (4-OH Tamoxifen 0.001-0.1 μM)
Protocol: Cells for binding experiments were plated on Day 0 at 5.6×10^4 cells/cm^2 in 96-well white/clear bottom microtiter plates (Falcon Optilux-I), or 96 well black/clear collagen I cellware plates (Beckton Dickinson Biocoat).
as §1, §2, §3

[5] = PC-3, relative to untreated control

Question: Which results are given for CSCC[C@H](NC(=O)[C@H](CC(C)C)NC(=O)[C@H](Cc1c[nH]cn1)NC(=O)CNC(=O)[C@@H](NC(=O)[C@H](C)NC(=O)[C@H](Cc1c[nH]c2ccccc12)NC(=O)[C@H](CCC(N)=O)NC(=O)CC[C@@H](C)[C@H]1CC[C@H]2[C@@H]3CC[C@@H]4C[C@@H](NC(=O)CNC(=O)CN5CCN(CC(=O)O)CCN(CC(=O)O)CCN(CC(=O)O)CC5)CC[C@]4(C)[C@H]3C[C@H](O)[C@]12C)C(C)C)C(N)=O [Compound L63, N-[(3β,5β,12α)-3-[[[[[4,7,10-Tris(carboxymethyl)-1,4,7,10-tetraazacyclododec-1-yl]acetyl]amino]acetyl]amino]-12-hydroxy-24-oxocholan-24-yl]-L-glutaminyl-L-tryptophyl-L-alanyl-L-valyl-glycyl-L-histidyl-L-leucyl-L-methioninamide]?
Answer: survival, Short Term Efficacy Study [1]: increased survival; GRP-R and NMB-R (binds both with similar affinity) (NMB-R): yes; receptor subtype preference (GRP-R versus NMB-R) (NMB-R): dual affinity for both GRP-R and NMB-R; Internalisation (40 minutes) (PC3 cells): 64%; Efflux (2 h) (PC3 cells): 0%

Question: For CSCC[C@H](NC(=O)[C@H](CC(C)C)NC(=O)[C@H](Cc1c[nH]cn1)NC(=O)CNC(=O)[C@@H](NC(=O)[C@H](C)NC(=O)[C@H](Cc1c[nH]c2ccccc12)NC(=O)[C@H](CCC(N)=O)NC(=O)CC[C@@H](C)[C@H]1CC[C@H]2[C@@H]3[C@H](O)C[C@@H]4C[C@@H](NC(=O)CNC(=O)CN5CCN(CC(=O)O)CCN(CC(=O)O)CCN(CC(=O)O)CC5)CC[C@]4(C)[C@H]3C[C@H](O)[C@]12C)C(C)C)C(N)=O [Compound L64, N-[(3β,5β,7α,12α)-3-[[[[[4,7,10-Tris(carboxymethyl)-1,4,7,10-tetraazacyclododec-1-yl]acetyl]amino]acetyl]amino]-7,12-dihydroxy-24-oxocholan-24-yl]-L-glutaminyl-L-tryptophyl-L-alanyl-L-valyl-glycyl-L-histidyl-L-leucyl-L-methioninamide], which “survival, Short Term Efficacy Study” value [1] is on record?
Answer: increased survival

Question: What about the “survival, Long Term Efficacy Study” value [1] of the same compound?
Answer: significantly increased survival

Question: And the “GRP-R and NMB-R (binds both with similar affinity)” value (NMB-R)?
Answer: yes

Question: And the “receptor subtype preference (GRP-R versus NMB-R)” value (NMB-R)?
Answer: dual affinity for both GRP-R and NMB-R

Question: And the “Internalisation (40 minutes)” value (PC3 cells)?
Answer: 69%

Question: What about the “Efflux (2 h)” value (PC3 cells) of the same compound?
Answer: 20%

Question: With CC/C(=C(\c1ccc(O)cc1)c1ccc(OCCN(C)C)cc1)c1ccccc1 [Compounds 4-OH-Tamoxifen] as the compound, how does the “change in 177Lu-AMBA binding (GRP receptor specific signal per cell), T47D” value [2] read?
Answer: −35%

Question: And the “change in 177Lu-AMBA binding (GRP receptor specific signal per cell), PC-3” value [3]?
Answer: 0%

Question: And the “change in 177Lu-AMBA binding (GRP receptor specific signal per cell), BT-474” value [4]?
Answer: −73%

Question: For CC(C)(C#N)c1cc(Cn2cncn2)cc(C(C)(C)C#N)c1 [anastrozole], which “decrease in 177Lu-AMBA binding (GRP receptor specific signal per cell)” value ([2]; T-47D) is on record?
Answer: up to 10%

Question: What about the “decrease in 177Lu-AMBA binding (GRP receptor specific signal per cell)” value [3, 5] of the same compound?
Answer: up to 10%

Question: And the “GRP receptor specific signal per cell (177Lu-AMBA binding) versus untreated controls, in words” value ([4]; BT-474)?
Answer: no change

Question: CC(C)C[C@H](NC(=O)[C@H](Cc1ccccc1)NC(=O)c1cnccn1)B(O)O [bortezomib] was tested. Which “decrease in 177Lu-AMBA binding (GRP receptor specific signal per cell)” value ([2]; T-47D) did it give?
Answer: up to 50%

Question: What about the “decrease in 177Lu-AMBA binding (GRP receptor specific signal per cell)” value [3, 5] of the same compound?
Answer: up to 60%

Question: And the “decrease in 177Lu-AMBA binding (GRP receptor specific signal per cell)” value ([4]; BT-474)?
Answer: up to 50%

Question: Which results are given for C#Cc1cccc(Nc2ncnc3cc(OCCOC)c(OCCOC)cc23)c1 [erlotinib]?
Answer: increase in 177Lu-AMBA binding (GRP receptor specific signal per cell) ([2]; T-47D): 5-20%; decrease in 177Lu-AMBA binding (GRP receptor specific signal per cell) [3, 5]: 5-20%; GRP receptor specific signal per cell (177Lu-AMBA binding) versus untreated controls, in words ([4]; BT-474): no change

Question: COc1cc2ncnc(Nc3ccc(F)c(Cl)c3)c2cc1OCCCN1CCOCC1 [gefitinib] was tested. Which “increase in 177Lu-AMBA binding (GRP receptor specific signal per cell)” value ([2]; T-47D) did it give?
Answer: up to 20%

Question: And the “decrease in 177Lu-AMBA binding (GRP receptor specific signal per cell)” value [3, 5]?
Answer: 20-40%

Question: And the “GRP receptor specific signal per cell (177Lu-AMBA binding) versus untreated controls, in words” value ([4]; BT-474)?
Answer: no change

Question: Which “increase in 177Lu-AMBA binding (GRP receptor specific signal per cell)” value ([2]; T-47D) does the source give for Cc1ccc(NC(=O)c2ccc(CN3CCN(C)CC3)cc2)cc1Nc1nccc(-c2cccnc2)n1 [imatinib] here?
Answer: up to 15%

Question: What about the “decrease in 177Lu-AMBA binding (GRP receptor specific signal per cell)” value [3, 5] of the same compound?
Answer: 15-25%

Question: What about the “GRP receptor specific signal per cell (177Lu-AMBA binding) versus untreated controls, in words” value ([4]; BT-474) of the same compound?
Answer: no change

Question: How did the “decrease in cell proliferation” value ([2]; T-47D, at the highest concentration) turn out when CS(=O)(=O)CCNCc1ccc(-c2ccc3ncnc(Nc4ccc(OCc5cccc(F)c5)c(Cl)c4)c3c2)o1 [lapatinib] was run?
Answer: ≤ 35%

Question: And the “increase in 177Lu-AMBA binding (GRP receptor specific signal per cell)” value ([2]; T-47D)?
Answer: up to 50%

Question: And the “proliferation versus untreated controls, in words” value ([3]; PC-3, 0.1-1.0 μM)?
Answer: no change

Question: What about the “GRP receptor specific signal per cell (177Lu-AMBA binding) versus untreated controls, in words” value ([3]; PC-3) of the same compound?
Answer: no change

Question: What about the “decrease in cell proliferation” value ([4]; BT-474, at the highest concentration) of the same compound?
Answer: ≤ 65%

Question: Which results are given for CNC(=O)c1cc(Oc2ccc(NC(=O)Nc3ccc(Cl)c(C(F)(F)F)c3)cc2)ccn1 [sorafenib]?
Answer: GRP receptor specific signal per cell (177Lu-AMBA binding) versus untreated controls, in words ([2]; T-47D): no change; change in 177Lu-AMBA uptake on a viable cell basis, T47D ([2]; Table 24, drug 0.1-1.0 μM (gefitinib 0.1-10, bortezomib 0.001-0.1), vs untreated control): NC (NC: Little (<10%) or no change in Lu-AMBA uptake); decrease in 177Lu-AMBA binding (GRP receptor specific signal per cell) [3, 5]: 10-20%; decrease in 177Lu-AMBA binding (GRP receptor specific signal per cell) ([4]; BT-474): 10-25%

Question: Which “increase in 177Lu-AMBA binding (GRP receptor specific signal per cell)” value ([2]; T-47D) does the source give for CCN(CC)CCNC(=O)c1c(C)[nH]c(/C=C2\C(=O)Nc3ccc(F)cc32)c1C [sunitinib] here?
Answer: up to 13%

Question: And the “increase in 177Lu-AMBA binding (GRP receptor specific signal per cell)” value ([3]; PC-3, relative to untreated control, drug 0.1-1.0 μM)?
Answer: up to 10%

Question: What about the “decrease in 177Lu-AMBA binding (GRP receptor specific signal per cell)” value ([4]; BT-474) of the same compound?
Answer: up to 8%

Question: What does the source list for C[C@]12CC[C@@H]3c4ccc(O)cc4CC[C@H]3[C@@H]1CC[C@@H]2O [β2-estradiol]?
Answer: GRP receptor specific signal per cell (177Lu-AMBA binding) versus untreated controls, in words ([2]; T-47D): did not change; change in 177Lu-AMBA binding (GRP receptor specific signal per cell), T47D [2]: 0%; GRP receptor specific signal per cell (177Lu-AMBA binding) versus untreated controls, in words ([3]; PC-3): no change; change in 177Lu-AMBA binding (GRP receptor specific signal per cell), PC-3 [3]: 0%; change in 177Lu-AMBA binding (GRP receptor specific signal per cell), BT-474 [4]: 47%

Question: Which results are given for “DO3A-monoamide-8-amino-octanoic acid-BBN (7-14)”?
Answer: Internalisation (40 minutes) (PC3 cells): 89%; Efflux (2 h) (PC3 cells): 28%

Question: How did the “receptor subtype preference (GRP-R versus NMB-R)” value (NMB-R) turn out when “N-[4-[[[[4,7,10-Tris(carboxymethyl)-1,4,7,10-tetraazacyclododec-1-yl]acetyl]glycyl]amino]-3-methoxybenzoyl]-L-glutaminyl-L-tryptophyl-1-alanyl-L-valyl-glycyl-L-histidyl-L-leucyl-L-methioninamide [Compound L240]” was run?
Answer: selective affinity to GRP-R

Question: For “N-[4-[[[[[4,7,10-Tris(carboxymethyl)-1,4,7,10-tetraazacyclododec-1-yl]acetyl]amino]acetyl]amino]benzoyl]-L-glutaminyl-L-tryptophyl-L-alanyl-L-valyl-glycyl-L-histidyl-L-leucyl-L-methioninamide [Compound L70]”, which “survival, Short Term Efficacy Study” value [1] is on record?
Answer: increased survival

Question: And the “survival, Long Term Efficacy Study” value [1]?
Answer: significantly increased survival

Question: What about the “Internalisation (40 minutes)” value (PC3 cells) of the same compound?
Answer: 70%

Question: And the “Efflux (2 h)” value (PC3 cells)?
Answer: 12%

Source: patent publication US20130136691A1, “GASTRIN […] PEPTIDE COMPOUNDS” (priority 2008, published 2013)
